In patent publication US20240180859A1, “COMPOSITIONS AND METHODS FOR IMMUNE-MEDIATED INFLAMMATORY DISEASES” (Thetis Pharmaceuticals LLC, priority 2022, published 2024):
Each block holds one compound with its values, some of them ahead of it.

Tests used:
[1] = system: CD4+ and CD8+ cells in the liver; details: concanavalin A-induced murine model; cited from earlier work
[2] = PK studies of RvE1-Na (subcutaneous, IV, oral), plasma and lung tissue; type: in vivo, Balb/c mice; details: 0.25-24 hours
Description: (§1) In the subcutaneous PK study, sixty-nine (69) C57BL/6J mice were administered 100 or 300 ug/kg doses of RvE1-Mg-Lys via subcutaneous injection. Mice were sacrificed and plasma was drawn at the following timepoints: baseline, 5, 15, 30 min, 1, 2, 4 and 8 hours (n=5 mice per timepoint). In the IV and oral PK studies, one-hundred eighty (180) Balb/c mice were administered RvE1-Na at 1 or 10 mg/kg via subcutaneous injection, IV injection, oral gavage (n=6 mice per timepoint). Plasma and lung tissue were assayed at the following timepoints: 0.25, 0.5, 1, 2, 6, 10 and 24 hours. […] Without being bound by any theory, the surprising efficacy of LTD dosing of resolvins in the cancer model systems described here may be the result of durable effects on the tumor microenvironment including changes in immune cell phenotype, vascularization, stromal phenotype, and antigen presentation, as well as durable effects on the T-cell compartment such as T-cell priming and increased tumor-infiltrating lymphocytes.

[3] = system: polymorphonuclear leukocyte (PMN) recruitment; details: equimolar dose; cited from earlier work
[4] = system: subcutaneous KPC tumors; assay: RNAseq cell enrichment analysis of tumor samples; type: in vivo, mice; details: Q6D treatment, Day 26, compared to placebo
Description: RNAseq analysis was performed on tumor samples from mice with subcutaneous KPC tumors sacrificed on Day 26 following treatment (Q6D) with bis RvE1 Mg-di-lysinate (Compound 1) compared to placebo. […] Darker color indicates increased gene expression, for various immune cells and other cells, as listed across the top of the heatmap. The boxed cells shown in FIG. 4 indicate an increase in markers of monocytes and DC cell subset (cDCs, pDCs, and iDCs) and markers of NK, CD8+ T cells, Th1 cells, and memory T cells (CD8+ and CD4+) with Compound 1 treatment. […] Namely, these unexpected results may be due to durable effects on the tumor microenvironment including changes in immune cell phenotype and the T-cell compartment such as T-cell priming and increased tumor-infiltrating lymphocytes.

[5] = Subcutaneous PK study of RvE1-Mg-Lys; type: in vivo, C57BL/6J mice; details: 100 or 300 ug/kg subcutaneous injection; baseline to 8 hours
Description: as §1

[6] = system: MC-38 cells; assay: MC38 model of colorectal cancer, subcutaneous tumors; type: in vivo, C57BL/6J male mice; details: 300 ug/kg, SC, P<0.05 vs placebo
Description: A representative compound of Formula IV, bis RvE1 magnesium di-lysinate (Compound 1), was tested for efficacy in several preclinical mouse models including the Panc2-H7 model of pancreatic cancer, and the MC38 model of colorectal cancer. These models are well established, highly tumorigenic syngeneic models in which murine cancer cell lines are injected subcutaneously (SC) into the dorsum of C57BL/6J mice. If left untreated, these tumors grow rapidly and lead to death or euthanasia, per protocol. As detailed below in Examples 1-4 and the accompanying figures, bis RvE1 Mg-di-lysinate (Compound 1) was unexpectedly effective as an anti-cancer agent in each of these model systems when administered in a less than daily (LTD) dosing regimen. […] Without being bound by any theory, the surprising efficacy of LTD dosing of resolvins in the model systems described here may be the result of durable effects on the inflammatory phenotype of the tumor microenvironment including changes in immune cell phenotype, vascularization, stromal phenotype, and antigen presentation, as well as durable effects on the T-cell compartment such as T-cell priming and increased tumor-infiltrating lymphocytes. […]

[7] = system: Panc2-H7 cells; assay: Panc2-H7 model of pancreatic cancer, subcutaneous tumors; type: in vivo, C57BL/6J male mice; details: SC
Description: A representative compound of Formula IV, bis RvE1 magnesium di-lysinate (Compound 1), was tested for efficacy in several preclinical mouse models including the Panc2-H7 model of pancreatic cancer, and the MC38 model of colorectal cancer. These models are well established, highly tumorigenic syngeneic models in which murine cancer cell lines are injected subcutaneously (SC) into the dorsum of C57BL/6J mice. If left untreated, these tumors grow rapidly and lead to death or euthanasia, per protocol. As detailed below in Examples 1-4 and the accompanying figures, bis RvE1 Mg-di-lysinate (Compound 1) was unexpectedly effective as an anti-cancer agent in each of these model systems when administered in a less than daily (LTD) dosing regimen. […] Without being bound by any theory, the surprising efficacy of LTD dosing of resolvins in the model systems described here may be the result of durable effects on the inflammatory phenotype of the tumor microenvironment including changes in immune cell phenotype, vascularization, stromal phenotype, and antigen presentation, as well as durable effects on the T-cell compartment such as T-cell priming and increased tumor-infiltrating lymphocytes.
Based on the previous findings in the MC38 colorectal cancer model with less than daily (LTD) dosing, a study in the Panc2-H7 model was conducted to assess the efficacy of LTD dosing of bis RvE1 Mg-di-lysinate in a different tumor model. A total of forty (40) C57BL/6J male mice were injected subcutaneously with 1×10e6 living Panc2-H7 cells. Once tumors reached 160-320 mm^3 in size, the mice were randomized (n=8 per group) to treatment with vehicle or SC injection with bis RvE1 Mg-di-lysinate at 30 ug/kg and 300 ug/kg (QD, Q7D).

Structure (SMILES): CC/C=C\C[C@H](O)/C=C/C=C\C=C\C=C\[C@@H](O)[C@@H](O)C/C=C\CCC(=O)O [RvD1, 7S,8R,17S-trihydroxy-4Z,9E,11E,13Z,15E,19Z-docosahexaenoic acid]
levels of CD4+ and CD8+ cells in the liver [1]: markedly downregulated

plasma and lung tissue levels of RvE1 over time ([2]; 1 or 10 mg/kg IV injection): rapid depletion
plasma and lung tissue levels of RvE1 over time ([2]; 1 or 10 mg/kg oral gavage): rapid depletion
plasma and lung tissue levels of RvE1 over time ([2]; 1 or 10 mg/kg subcutaneous injection): rapid depletion
Structure (SMILES): CC[C@@H](O)/C=C/C=C\C[C@@H](O)/C=C/C=C/C=C\[C@@H](O)CCCC(=O)[O-].[Na+] [RvE1-Na]

Structure (SMILES): CC[C@@H](O)/C=C/C=C\C[C@@H](O)/C=C/C=C/C=C\[C@@H](O)CCCC(=O)O [RvE1, 5S,12R,18R-trihydroxy-6Z,8E,10E,14Z,16E-eicosapentaenoic acid]
activity in zymosan-induced peritonitis (PMN recruitment) [3]: potently reduced
levels of CD4+ and CD8+ cells in the liver [1]: markedly downregulated

plasma levels of RvE1 over time [5]: rapid depletion
Structure (SMILES): CC[C@@H](O)/C=C/C=C\C[C@@H](O)/C=C/C=C/C=C\[C@@H](O)CCCC(=O)O [Compound 1, bis RvE1 Mg-di-lysinate]
markers of NK, CD8+ T cells, Th1 cells, and memory T cells (CD8+ and CD4+), gene expression [4]: increase
markers of monocytes and DC cell subset (cDCs, pDCs, and iDCs), gene expression [4]: increase
tumor volume (Day 15 vs Day 0), efficacy as a single agent vs placebo ([6]; Q3D): effective as a single agent
tumor volume (Day 15 vs Day 0), efficacy as a single agent vs placebo ([6]; QD): effective as a single agent
tumor volume (Day 20 vs Day 0), inhibition relative to placebo control ([7]; 30 ug/kg, Q7D): demonstrated inhibition relative to placebo control
tumor volume (Day 20 vs Day 0), inhibition relative to placebo control ([7]; 30 ug/kg, QD): demonstrated inhibition relative to placebo control
tumor volume (Day 20 vs Day 0), inhibition relative to placebo control ([7]; 300 ug/kg, Q7D, P<0.05 vs placebo control): greatest inhibition
tumor volume (Day 20 vs Day 0), inhibition relative to placebo control ([7]; 300 ug/kg, QD): demonstrated inhibition relative to placebo control

Structure (SMILES): CCC(=O)/C=C/C=C\C[C@@H](O)/C=C/C=C/C=C\[C@@H](O)CCCC(=O)O [Compound 18-oxo-RvE1, 18-oxo-RvE1]
activity in zymosan-induced peritonitis (PMN recruitment) [3]: devoid of activity
